Experimental data taken from PubChem BioAssay (NCI).
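All cell lines were grown in 96-well plates and treated with compound for 48 hours. TGI denotes the concentration required for complete inhibition of growth.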

Tests used:
Experiment in all cases: NCI anticancer screen, dose series, 48 h
[1] = system: 786-0 renal
[2] = system: A498 renal
[3] = system: A549 NSCLC
[4] = system: ACHN renal
[5] = system: BT-549 breast
[6] = system: CAKI-1 renal
[7] = system: CCRF-CEM leukemia
[8] = system: COLO 205 colon
[9] = system: DU-145 prostate
[10] = system: EKVX NSCLC
[11] = system: HCC-2998 colon
[12] = system: HCT-116 colon
[13] = system: HCT-15 colon
[14] = system: HOP-62 NSCLC
[15] = system: HOP-92 NSCLC
[16] = system: HS 578T breast
[17] = system: HT29 colon
[18] = system: IGROV1 ovarian
[19] = system: K-562 leukemia
[20] = system: KM12 colon
[21] = system: LOX IMVI melanoma
[22] = system: M14 melanoma
[23] = system: MALME-3M melanoma
[24] = system: MCF7 breast
[25] = system: MDA-MB-231 breast
[26] = system: MDA-MB-435
[27] = system: MDA-N
[28] = system: MOLT-4 leukemia
[29] = system: NCI-H226 lung
[30] = system: NCI-H23 lung
[31] = system: NCI-H460 lung
[32] = system: NCI-H522 lung
[33] = system: NCI/ADR-RES ovarian
[34] = system: OVCAR-3 ovarian
[35] = system: OVCAR-4 ovarian
[36] = system: OVCAR-5 ovarian
[37] = system: OVCAR-8 ovarian
[38] = system: PC-3 prostate
[39] = system: RPMI-8226 leukemia
[40] = system: RXF 393 renal
[41] = system: SF-268 CNS
[42] = system: SF-295 CNS
[43] = system: SF-539 CNS
[44] = system: SK-MEL-2 melanoma
[45] = system: SK-MEL-28 melanoma
[46] = system: SK-MEL-5 melanoma
[47] = system: SK-OV-3 ovarian
[48] = system: SN12C renal
[49] = system: SNB-19 CNS
[50] = system: SNB-75 CNS
[51] = system: SR leukemia
[52] = system: SW-620 colon
[53] = system: T-47D breast
[54] = system: TK-10 renal
[55] = system: U251 CNS
[56] = system: UACC-257 melanoma
[57] = system: UACC-62 melanoma
[58] = system: UO-31 renal
[59] = system: HL-60(TB) leukemia

CCCCc1c2c(c(C)c3c1C(=O)OC3)Oc1ccccc1O2
TGI [1]: > 36.9 µM
TGI [2]: > 46.5 µM
TGI [3]: > 43.2 µM
TGI [4]: > 100 µM
TGI [5]: > 100 µM
TGI [6]: > 100 µM
TGI [7]: > 100 µM
TGI [8]: 7.69 µM
TGI [9]: > 43.8 µM
TGI [10]: > 100 µM
TGI [11]: 3.22 µM
TGI [12]: 27.1 µM
TGI [13]: > 100 µM
TGI [14]: > 68.3 µM
TGI [15]: > 100 µM
TGI [16]: 5.8 µM
TGI [17]: > 40.9 µM
TGI [18]: > 100 µM
TGI [19]: 22.4 µM
TGI [20]: > 100 µM
TGI [21]: > 100 µM
TGI [22]: > 100 µM
TGI [23]: > 100 µM
TGI [24]: > 100 µM
TGI [25]: > 55.6 µM
TGI [26]: 1.59 µM
TGI [27]: 0.456 µM
TGI [28]: > 100 µM
TGI [29]: > 81.1 µM
TGI [30]: > 100 µM
TGI [31]: 18.2 µM
TGI [32]: 1.15 µM
TGI [33]: 20.5 µM
TGI [34]: 1.51 µM
TGI [35]: > 95.6 µM
TGI [36]: > 100 µM
TGI [37]: 35.7 µM
TGI [38]: > 34.8 µM
TGI [39]: > 24.5 µM
TGI [40]: 7.98 µM
TGI [41]: > 100 µM
TGI [42]: > 51.4 µM
TGI [43]: 3.67 µM
TGI [44]: > 33.7 µM
TGI [45]: > 100 µM
TGI [46]: > 26.2 µM
TGI [47]: > 100 µM
TGI [48]: 38.3 µM
TGI [49]: > 75 µM
TGI [50]: 13.4 µM
TGI [51]: > 40.1 µM
TGI [52]: > 42 µM
TGI [53]: > 100 µM
TGI [54]: > 71.3 µM
TGI [55]: 14.9 µM
TGI [56]: 96.9 µM
TGI [57]: > 100 µM
TGI [58]: > 100 µM

CC[C@H](C)[C@H](NC(=O)[C@@]1(O)[C@H](O)[C@]2(CC)C=CCN3CC[C@@]4(c5cc(Br)c(OC)cc5N(C)[C@@H]14)[C@@H]32)C(=O)OC
TGI [1]: > 100 µM
TGI [2]: > 100 µM
TGI [3]: > 100 µM
TGI [4]: > 100 µM
TGI [5]: > 100 µM
TGI [6]: > 100 µM
TGI [7]: 67.3 µM
TGI [8]: 29.2 µM
TGI [9]: > 100 µM
TGI [10]: > 100 µM
TGI [11]: 87.7 µM
TGI [12]: > 100 µM
TGI [13]: > 100 µM
TGI [59]: 70.8 µM
TGI [14]: > 100 µM
TGI [16]: 77.1 µM
TGI [17]: 30.5 µM
TGI [18]: > 100 µM
TGI [19]: > 100 µM
TGI [20]: > 100 µM
TGI [21]: 35.5 µM
TGI [22]: 84.5 µM
TGI [23]: 83.7 µM
TGI [24]: > 100 µM
TGI [25]: 46.5 µM
TGI [26]: 71.3 µM
TGI [27]: > 100 µM
TGI [28]: > 100 µM
TGI [30]: > 100 µM
TGI [31]: > 100 µM
TGI [32]: > 100 µM
TGI [33]: > 100 µM
TGI [34]: > 100 µM
TGI [35]: 50 µM
TGI [36]: > 100 µM
TGI [37]: > 100 µM
TGI [38]: > 100 µM
TGI [39]: 34.9 µM
TGI [40]: > 100 µM
TGI [41]: > 100 µM
TGI [42]: > 100 µM
TGI [43]: 91.3 µM
TGI [44]: > 100 µM
TGI [45]: 38.7 µM
TGI [46]: 87.4 µM
TGI [47]: > 100 µM
TGI [48]: > 100 µM
TGI [49]: > 100 µM
TGI [51]: > 100 µM
TGI [52]: > 100 µM
TGI [53]: > 100 µM
TGI [54]: > 100 µM
TGI [55]: > 100 µM
TGI [56]: 62.1 µM
TGI [57]: 28.9 µM
TGI [58]: > 100 µM

O=c1oc2ccc([N+](=O)[O-])cc2cc1Br
TGI [1]: > 100 µM
TGI [2]: > 100 µM
TGI [3]: > 100 µM
TGI [4]: > 100 µM
TGI [5]: > 100 µM
TGI [6]: > 100 µM
TGI [7]: > 100 µM
TGI [8]: > 100 µM
TGI [9]: > 100 µM
TGI [10]: > 100 µM
TGI [11]: > 100 µM
TGI [12]: > 100 µM
TGI [59]: > 100 µM
TGI [14]: > 100 µM
TGI [15]: > 100 µM
TGI [16]: > 100 µM
TGI [17]: > 100 µM
TGI [18]: > 100 µM
TGI [19]: > 100 µM
TGI [20]: > 100 µM
TGI [21]: > 100 µM
TGI [22]: > 100 µM
TGI [23]: > 100 µM
TGI [24]: > 100 µM
TGI [25]: > 100 µM
TGI [26]: > 100 µM
TGI [27]: > 100 µM
TGI [28]: > 100 µM
TGI [29]: > 100 µM
TGI [30]: > 100 µM
TGI [31]: > 100 µM
TGI [32]: > 100 µM
TGI [33]: > 100 µM
TGI [34]: > 100 µM
TGI [35]: > 100 µM
TGI [36]: > 100 µM
TGI [37]: > 100 µM
TGI [38]: > 100 µM
TGI [39]: > 100 µM
TGI [40]: > 100 µM
TGI [41]: > 100 µM
TGI [42]: > 100 µM
TGI [43]: > 100 µM
TGI [44]: > 100 µM
TGI [45]: > 100 µM
TGI [46]: > 100 µM
TGI [48]: > 100 µM
TGI [49]: > 100 µM
TGI [51]: > 100 µM
TGI [52]: > 100 µM
TGI [53]: > 100 µM
TGI [54]: > 100 µM
TGI [55]: > 100 µM
TGI [56]: > 100 µM
TGI [57]: > 100 µM
TGI [58]: > 100 µM
